Measured values: US4309559A, “Sulphonamides useful as pesticides” (FBC Limited, priority 1977, dated 1982)

Experiments:
Peas (Pisum sativum) [1] = assay: Post-emergence foliar spray, herbicidal/growth regulant response, peas; type: in vivo; settings: Lathyrus oleraceus, 168 h, foliar spray 11.2 kg/ha, 7 days, 0=no effect, 100=complete kill, read-out: herbicidal or growth regulant response index
Procedure: (§1) Seeds of the plant species listed below were sown in anodised aluminium pans, 19 cm long×9.5 cm wide×5 cm deep, containing John Innes I potting compost. They were then watered and placed in a controlled environment room (22° C.; 65-85% relative humidity; 14 hours per day artificial illumination at 13,000 lux). Fourteen days after sowing, the seedlings received a foliar spray of a compound listed below, formulated as a solution in 1:1 by volume aqueous acetone. The concentration of active ingredient and volume of application were adjusted so as to be equivalent to a rate of 11.2 kg/ha in 450 liters per hectare. After seven days growth in the controlled environment room, the plants were visually assessed for any herbicidal or growth regulant response. All differences from the untreated control were scored according to an index where 0=no effect and 100=complete kill.
(§2) The product of Example 95 was tested according to the procedure of Examples 49-55.

Mustard (Sinapis alba) [2] = assay: Post-emergence foliar spray, herbicidal/growth regulant response, mustard; type: in vivo; settings: 168 h, foliar spray 11.2 kg/ha, 7 days, 0=no effect, 100=complete kill, read-out: herbicidal or growth regulant response index
Procedure: as §1, §2

[3] = test system: Linseed (Linum usitatissimum); assay: Post-emergence foliar spray, herbicidal/growth regulant response, linseed; type: in vivo; settings: 168 h, foliar spray 11.2 kg/ha, 7 days, 0=no effect, 100=complete kill, read-out: herbicidal or growth regulant response index
Procedure: as §1, §2

[4] = test system: Ryegrass (Lolium perenne); assay: Post-emergence foliar spray, herbicidal/growth regulant response, ryegrass; type: in vivo; settings: 168 h, foliar spray 11.2 kg/ha, 7 days, 0=no effect, 100=complete kill, read-out: herbicidal or growth regulant response index
Procedure: as §1, §2

[5] = test system: Sugarbeet (Beta vulgaris); assay: Post-emergence foliar spray, herbicidal/growth regulant response, sugarbeet; type: in vivo; settings: 168 h, foliar spray 11.2 kg/ha, 7 days, 0=no effect, 100=complete kill, read-out: herbicidal or growth regulant response index
Procedure: as §1, §2

Oat (Avena sativa) = assay: Post-emergence foliar spray, herbicidal/growth regulant response, oat; type: in vivo; settings: 168 h, foliar spray 11.2 kg/ha, 7 days, 0=no effect, 100=complete kill, read-out: herbicidal or growth regulant response index
Procedure: as §1, §2

[6] = test system: French beans (Phaseolus vulgaris); assay: Post-emergence foliar spray, herbicidal/growth regulant response, French beans; type: in vivo; settings: foliar spray 11.2 kg/ha, 7 days, 0=no effect, 100=complete kill
Procedure: as §1, §2

Peas (Pisum sativum) [7] = assay: Soil incorporation (attaclay/sand dust), growth regulatory or herbicidal effects, peas; type: in vivo; settings: Lathyrus oleraceus, 504 h, 21 days, 0=no effect, read-out: growth regulatory or herbicidal effect score
Summary of the method: (§3)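 Active ingredient formulated as attaclay/sand dust and mixed into John Innes I potting compost at 26 or 130 ppm w/v (about 11.2 or 56 kg a.i./ha cultivated to 5 cm). Seeds sown in treated soil, grown 21 days at 22° C, 65-85% RH, 14 h light at 13,000 lux; visual score 0-100 versus untreated control.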

Mustard (Sinapis alba) [8] = assay: Soil incorporation (attaclay/sand dust), growth regulatory or herbicidal effects, mustard; type: in vivo; settings: 504 h, 21 days, 0=no effect, read-out: growth regulatory or herbicidal effect score
Summary of the method: as §3

[9] = test system: Linseed (Linum usitatissimum); assay: Soil incorporation (attaclay/sand dust), growth regulatory or herbicidal effects, linseed; type: in vivo; settings: 504 h, 21 days, 0=no effect, read-out: growth regulatory or herbicidal effect score
Summary of the method: as §3

Maize (Zea mays) = assay: Soil incorporation (attaclay/sand dust), growth regulatory or herbicidal effects, maize; type: in vivo; settings: 504 h, 21 days, 0=no effect, read-out: growth regulatory or herbicidal effect score
Summary of the method: as §3

Oats (Avena sativa) = assay: Soil incorporation (attaclay/sand dust), growth regulatory or herbicidal effects, oats; type: in vivo; settings: 504 h, 21 days, 0=no effect, read-out: growth regulatory or herbicidal effect score
Summary of the method: as §3

[10] = test system: Ryegrass (Lolium perenne); assay: Soil incorporation (attaclay/sand dust), growth regulatory or herbicidal effects, ryegrass; type: in vivo; settings: 504 h, 21 days, 0=no effect, read-out: growth regulatory or herbicidal effect score
Summary of the method: as §3

Cotton = assay: Soil incorporation (I), cotton; type: in vivo; settings: I soil incorporation 6.5 ppm, 21 days, 0=no effect, 100=complete suppression
Excerpt: (§4) Each of the compounds listed below was formulated as: […]
(§5) (I) an attaclay/sand dust and incorporated in John Innes I potting compost at a rate equivalent to 6.5 and 3.25 parts per million weight/volume of active ingredient to soil and placed in anodised aluminium pans, 19 cm long×9.5 cm wide×5.0 cm high. This is approximately equivalent to a surface application of 2.8 and 1.4 kg active ingredient per hectare cultivated to a depth of 5 cm. Seeds of the species listed below were sown in the treated soil, one species per pan, watered and placed in a controlled environment room (22° C.; 65-85% relative humidity and 14 hours artificial illumination at 17,000 lux) for 21 days.
(§6) The plants were then visually assessed for any growth regulatory or herbicidal effects. All differences from an untreated control were scored on a scale from 0-100, where 0 signifies no effect and 100 signifies complete suppression.
(§7) The results are shown in the following table where I stands for soil incorporation and II for surface spray.

Tomato = assay: Soil incorporation (I), tomato; type: in vivo; settings: I soil incorporation 6.5 ppm, 21 days, 0=no effect, 100=complete suppression
Excerpt: as §4, §5, §6, §7

Carrot = assay: Soil incorporation (I), carrot; type: in vivo; settings: I soil incorporation 6.5 ppm, 21 days, 0=no effect, 100=complete suppression
Excerpt: as §4, §5, §6, §7

Chickweed = assay: Soil incorporation (I), chickweed; type: in vivo; settings: I soil incorporation 6.5 ppm, 21 days, 0=no effect, 100=complete suppression
Excerpt: as §4, §5, §6, §7

Mustard = assay: Soil incorporation (I), mustard; type: in vivo; settings: I soil incorporation 6.5 ppm, 21 days, 0=no effect, 100=complete suppression
Excerpt: as §4, §5, §6, §7

Fathen = assay: Soil incorporation (I), fathen; type: in vivo; settings: I soil incorporation 6.5 ppm, 21 days, 0=no effect, 100=complete suppression
Excerpt: as §4, §5, §6, §7

Xanthomonas malvacearum = assay: Bacterial growth in dextrose nutrient broth; type: cell-based; settings: 200 ppm weight/volume; 8 days incubation at 25° C.
Procedure: A 1% suspension/solution of the product of Example 157 in polyethylene glycol (Carbowax 400) was added to a dextrose nutrient broth to give a concentration of 1,000 parts per million (ppm) weight/volume of medium. Dilution in test tubes was then carried out to give a concentration of 200 ppm weight/volume of medium. To 8 ml quantities of broth was added 0.2 ml of a dense broth culture of the bacterium causing black arm of cotton, Xanthomonas malvacearum. After 8 days incubation at 25° C., all the broth specimens were examined for signs of bacterial growth.

acetylcholinesterase = assay: Standard test indicative of insecticidal activity: inhibition of acetylcholinesterase; type: biochemical; settings: 100 micromolar concentration
[11] = soil incorporation 26 ppm, 100=complete kill
[12] = soil incorporation 130 ppm, 100=complete kill/suppression

For `CCOC(=O)C(CC)N(c1c(C)cccc1C)S(C)(=O)=O` (stereo not drawn) [Example 95], which pest or weed control at 11200 g/ha (Peas (Pisum sativum) [1]) is on record?
Its pest or weed control at 11200 g/ha is 15%.

What about the pest or weed control at 11200 g/ha (Mustard (Sinapis alba) [2]) of the same compound?
The pest or weed control at 11200 g/ha was 100%.

What about the pest or weed control at 11200 g/ha [3] of the same compound?
The pest or weed control at 11200 g/ha was 25%.

What about the pest or weed control at 11200 g/ha [4] of the same compound?
Its pest or weed control at 11200 g/ha is 15%.

What about the plant injury at 11200 g/ha [5] of the same compound?
Its plant injury at 11200 g/ha is 100%.

What about the plant injury at 11200 g/ha (Oat (Avena sativa)) of the same compound?
The plant injury at 11200 g/ha was 20%.

What about the “herbicidal or growth regulant response index” value [6] of the same compound?
Its value is 100.

And the pest or weed control at 26 µg/mL (Peas (Pisum sativum) [7]; [11])?
The pest or weed control at 26 µg/mL was 20%.

What about the pest or weed control at 130 µg/mL (Peas (Pisum sativum) [7]; [12]) of the same compound?
Its pest or weed control at 130 µg/mL is 30%.

And the pest or weed control at 26 µg/mL (Mustard (Sinapis alba) [8]; [11])?
Its pest or weed control at 26 µg/mL is 90%.

And the pest or weed control at 130 µg/mL (Mustard (Sinapis alba) [8]; [12])?
Its pest or weed control at 130 µg/mL is 100%.

What about the pest or weed control at 26 µg/mL [9, 11] of the same compound?
The pest or weed control at 26 µg/mL was 0%.

And the pest or weed control at 130 µg/mL [9, 12]?
The pest or weed control at 130 µg/mL was 80%.

And the plant injury at 26 µg/mL (Maize (Zea mays); [11])?
The plant injury at 26 µg/mL was 50%.

And the plant injury at 130 µg/mL (Maize (Zea mays); [12])?
The plant injury at 130 µg/mL was 100%.

And the plant injury at 26 µg/mL (Oats (Avena sativa); [11])?
Its plant injury at 26 µg/mL is 0%.

And the plant injury at 130 µg/mL (Oats (Avena sativa); [12])?
The plant injury at 130 µg/mL was 100%.

What about the pest or weed control at 26 µg/mL [10, 11] of the same compound?
Its pest or weed control at 26 µg/mL is 90%.

And the pest or weed control at 130 µg/mL [10, 12]?
Its pest or weed control at 130 µg/mL is 100%.

What about the “growth regulatory or herbicidal effect score” value (Cotton) of the same compound?
The value was 5.

What about the “growth regulatory or herbicidal effect score” value (Tomato) of the same compound?
The value was 90.

And the “growth regulatory or herbicidal effect score” value (Carrot)?
Its value is 0.

What about the “growth regulatory or herbicidal effect score” value (Chickweed) of the same compound?
Its value is 90.

And the “growth regulatory or herbicidal effect score” value (Mustard)?
The value was 50.

And the “growth regulatory or herbicidal effect score” value (Fathen)?
The value was 100.

With `CS(=O)(=O)N(CC(N)=S)c1cccc(Cl)c1Cl` [Example 157] as the compound, how does the bacterial growth (Xanthomonas malvacearum) read?
Its bacterial growth is “No growth occurred”.

Which inhibition of acetylcholinesterase (acetylcholinesterase) does the source give for `CNC(=O)ON=C(C)CN(c1c(C)cccc1C)S(C)(=O)=O` [Example 248, N-[2-(methylcarbamoyloxyimino)propyl]-2',6'-dimethylmethanesulphonanilide] here?
The inhibition of acetylcholinesterase was 30%.
